Assay results taken from patent publication US20110118337A1, “Method of Using Compositions Comprising MIR-192 and/or MIR-215 for the Treatment of Cancer” (Merck Sharp & Dohme Corp., priority 2008, published 2011).

Tests used:
[1] = system: 18 candidate downstream targets of miR-192/miR-215 in U-2-OS cells; assay: Transcript abundance of target genes by quantitative PCR (Taqman); assay type: cell-based; details: 10 nM, 10 hours following transfection, relative to luciferase siRNA or miR-192 seed region mutant
Description: To further confirm that the candidate genes shown in TABLE 7 and TABLE 8 are direct downstream targets of miR-192/miR-215, miR-192 siRNA (10 nM) synthetic duplexes, miR-192 mutant (10 nM) or 10 nM siRNA against luciferase were transfected into the cell line U-2-OS, an osteosarcoma cell line that has wild-type DICER function and a relatively low endogenous level of miR-192/miR-215.
RNA was isolated at 10 hours post-transfection and transcript abundance of the target genes shown in TABLE 7 and TABLE 8 was measured by quantitative PCR. Transcript abundance was measured by Taqman gene expression assay (Applied Biosystems) using hGUS as an internal control. Levels of transcripts were quantified using an ABI Prism 7900HT sequence detection system.

[2] = system: HCT116DICER^ex5 cells; assay: BrdU pulse-labeling, flow cytometry (S-phase); assay type: cell-based, human; details: BrdU pulse-labeled; 10 nM duplex
Description: At 48 hours post transfection, cells were left untreated, treated with nocodazole (100 ng/mL, Sigma-Aldrich), or treated with aphidicolin (2 μg/mL, Sigma-Aldrich) for an additional 18 hours before harvesting. The cells were then trypsinized, collected, fixed and stained with a propidium iodide solution. BrdU-labeling was performed according to the manufacturer's instructions (BD-Pharmigen). For phospho-histone H3 analysis, cells were fixed and permeabilized with IPF buffer (100 mM PIPES pH 6.8, 10 mM EDTA, 1 mM MgCl2, 0.2% Triton X-100, 4% formaldehyde) and stained with propidium iodide and anti-phospho-histone H3 antibody conjugated to Alexa-488 (Cell Signaling Technology). The cells were analyzed using a FACSCalibur flow cytometer (Beacton Dickinson) and FlowJo software (Tree Star, Inc.).
The transfected cells were also pulse-labeled with the thymidine analog 5-bromo-deoxyuridine (BrdU) to assay for defects in DNA synthesis. Using flow cytometry and it was determined that the percentage of cells in S-phase in the mock transfected population was 37.3%, whereas the percentage of cells in S-phase in the miR-192 transfected population was 11.9%.

[3] = system: 3′ UTRs of the 18 candidate genes in U-2-OS cells; assay: 3′ UTR luciferase reporter analysis; assay type: cell-based; details: 10 nM, 24 hours post-transfection
From the text: In order to test whether miR-192 is regulating these genes through seed sequence-specific recognition of binding sites within their 3' UTRs, a series of reporter constructs were generated containing the entire natural 3' UTRs of the 18 candidate genes (BCL2, CDC7, CUL5, DLG5, DTL, ERCC3, HOXA10, HRH1, LMNB2, MAD2L1, MCM10, MIS12, MPHOSPH1, PIM1, PRPF38A, […]1, SEPT10 and SMARCB1) inserted downstream of a luciferase open reading frame (SwitchGear Genomics) to create 3' UTR luciferase reporter plasmids. U-2-OS cells were transfected first with 10 nM miR-192 or 10 nM miR-192 mutant, and subsequently transfected 4 to 6 hours later with these 3' UTR reporter plasmids. A renilla luciferase expression plasmid from dual luciferase system (Promega) was used as an internal control. Luciferase activity was measured at 24 hours post-transfection, and quantified relative to renilla luciferase activity.

For “miR-192: Synthetic duplex mimetic of miR-192, guide CUGACCUAUGAAUUGACAGCC (SEQ ID NO:1), passenger SEQ ID NO:7 (sense CUGUCAAUUCAUCGGUCUGAU; listed as RNA, chemistry not given here; listed as Homo sapiens)”, the “candidate gene transcript levels” value [1] was “decrease”, the “percentage of cells in S-phase” value [2] was 11.9% and the “regulation of 3′ UTR luciferase reporters of the 18 genes” value [3] was “regulated”.
